Results reported in ChEMBL document CHEMBL5154787 (J Med Chem, 2022).

Tests used:
[1] = Metabolic stability in human liver microsomes assessed as half life incubated at 0.5 uM for 10 mins in presence of NADPH by LC-MS/MS analysis; assay type: ADME, Microsome
[2] = molecular target: BMP-2-inducible protein kinase (Homo sapiens, UniProt Q9NSY1); test: Inhibition of BIKE (unknown origin)
[3] = Metabolic stability in mouse liver microsomes assessed as parent compound remaining at 0.5 uM incubated for 10 mins in presence of NADPH by LC-MS/MS analysis; assay type: ADME, Microsome; settings: for remaining at 10 min, 0.5 µM: liver microsomes, read-out: Stability
Cytochrome P450 2B6 = molecular target: T1, Cytochrome P450 2B6 (Homo sapiens, UniProt P20813); test: Inhibition of CYP2B6 (unknown origin) incubated for 10 mins in presence of NADPH by LC-MS/MS analysis; assay type: ADME
T1 sequence (P20813 whole entry): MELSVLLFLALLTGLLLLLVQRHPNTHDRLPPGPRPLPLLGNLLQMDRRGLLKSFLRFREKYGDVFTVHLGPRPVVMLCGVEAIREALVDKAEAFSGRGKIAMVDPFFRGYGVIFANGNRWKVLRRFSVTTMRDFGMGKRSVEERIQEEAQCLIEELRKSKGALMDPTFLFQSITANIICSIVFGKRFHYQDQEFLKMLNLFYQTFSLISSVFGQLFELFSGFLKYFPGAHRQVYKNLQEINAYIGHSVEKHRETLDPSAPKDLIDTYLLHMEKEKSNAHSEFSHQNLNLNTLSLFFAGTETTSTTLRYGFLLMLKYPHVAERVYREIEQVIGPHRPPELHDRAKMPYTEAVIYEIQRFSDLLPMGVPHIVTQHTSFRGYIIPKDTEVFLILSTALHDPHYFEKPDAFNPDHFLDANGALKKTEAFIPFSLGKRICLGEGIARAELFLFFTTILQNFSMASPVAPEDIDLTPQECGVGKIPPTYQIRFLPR

Cytochrome P450 2C9 = Cytochrome P450 2C9 (Homo sapiens, UniProt P11712); test: Inhibition of CYP2C9 (unknown origin) incubated for 10 mins in presence of NADPH by LC-MS/MS analysis; assay type: ADME
Cytochrome P450 2C9, sequence (P11712 whole entry): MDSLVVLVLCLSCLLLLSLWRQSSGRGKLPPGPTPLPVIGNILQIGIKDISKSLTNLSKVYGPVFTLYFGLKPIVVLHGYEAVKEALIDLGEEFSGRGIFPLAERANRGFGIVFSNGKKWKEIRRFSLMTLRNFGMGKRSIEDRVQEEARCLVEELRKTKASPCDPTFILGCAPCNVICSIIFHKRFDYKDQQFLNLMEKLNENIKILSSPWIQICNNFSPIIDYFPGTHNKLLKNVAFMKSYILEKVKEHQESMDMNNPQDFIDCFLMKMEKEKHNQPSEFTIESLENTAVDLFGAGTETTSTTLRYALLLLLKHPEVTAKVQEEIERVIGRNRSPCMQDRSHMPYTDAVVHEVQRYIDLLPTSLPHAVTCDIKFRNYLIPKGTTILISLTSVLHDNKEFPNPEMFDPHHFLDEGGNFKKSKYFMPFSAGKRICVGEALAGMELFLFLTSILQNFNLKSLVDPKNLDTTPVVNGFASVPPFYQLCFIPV

Cytochrome P450 1A2 = molecular target: T2, Cytochrome P450 1A2 (Homo sapiens, UniProt P05177); test: Inhibition of CYP1A2 (unknown origin) incubated for 10 mins in presence of NADPH by LC-MS/MS analysis; assay type: ADME
T2 sequence (P05177 whole entry): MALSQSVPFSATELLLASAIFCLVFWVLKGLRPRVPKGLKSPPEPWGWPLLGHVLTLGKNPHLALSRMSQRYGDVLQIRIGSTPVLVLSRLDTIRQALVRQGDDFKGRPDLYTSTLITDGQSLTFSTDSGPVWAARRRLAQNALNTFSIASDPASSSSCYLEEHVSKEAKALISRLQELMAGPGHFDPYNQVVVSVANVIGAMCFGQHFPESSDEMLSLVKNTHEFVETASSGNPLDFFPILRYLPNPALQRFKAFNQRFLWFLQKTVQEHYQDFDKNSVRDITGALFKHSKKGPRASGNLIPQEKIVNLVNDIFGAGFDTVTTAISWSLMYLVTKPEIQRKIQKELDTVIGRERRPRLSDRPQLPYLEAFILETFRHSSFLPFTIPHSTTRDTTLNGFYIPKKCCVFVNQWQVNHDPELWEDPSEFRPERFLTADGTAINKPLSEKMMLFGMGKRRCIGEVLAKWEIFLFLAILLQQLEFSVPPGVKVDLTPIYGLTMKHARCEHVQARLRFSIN

[4] = Permeability of compound at pH 5.5 incubated for 4 hrs by PAMPA assay; assay type: ADME; settings: read-out: permeability
[5] = molecular target: AP2-associated protein kinase 1 (Mus musculus, UniProt Q3UHJ0); test: Displacement of 3H-LP-927443 from AAK1 in C57BL6 mouse brain homogenate assessed as inhibition constant incubated for 1 hr by liquid scintillation counter analysis; assay type: tissue-based
AP2-associated protein kinase 1, sequence (Q3UHJ0 whole entry): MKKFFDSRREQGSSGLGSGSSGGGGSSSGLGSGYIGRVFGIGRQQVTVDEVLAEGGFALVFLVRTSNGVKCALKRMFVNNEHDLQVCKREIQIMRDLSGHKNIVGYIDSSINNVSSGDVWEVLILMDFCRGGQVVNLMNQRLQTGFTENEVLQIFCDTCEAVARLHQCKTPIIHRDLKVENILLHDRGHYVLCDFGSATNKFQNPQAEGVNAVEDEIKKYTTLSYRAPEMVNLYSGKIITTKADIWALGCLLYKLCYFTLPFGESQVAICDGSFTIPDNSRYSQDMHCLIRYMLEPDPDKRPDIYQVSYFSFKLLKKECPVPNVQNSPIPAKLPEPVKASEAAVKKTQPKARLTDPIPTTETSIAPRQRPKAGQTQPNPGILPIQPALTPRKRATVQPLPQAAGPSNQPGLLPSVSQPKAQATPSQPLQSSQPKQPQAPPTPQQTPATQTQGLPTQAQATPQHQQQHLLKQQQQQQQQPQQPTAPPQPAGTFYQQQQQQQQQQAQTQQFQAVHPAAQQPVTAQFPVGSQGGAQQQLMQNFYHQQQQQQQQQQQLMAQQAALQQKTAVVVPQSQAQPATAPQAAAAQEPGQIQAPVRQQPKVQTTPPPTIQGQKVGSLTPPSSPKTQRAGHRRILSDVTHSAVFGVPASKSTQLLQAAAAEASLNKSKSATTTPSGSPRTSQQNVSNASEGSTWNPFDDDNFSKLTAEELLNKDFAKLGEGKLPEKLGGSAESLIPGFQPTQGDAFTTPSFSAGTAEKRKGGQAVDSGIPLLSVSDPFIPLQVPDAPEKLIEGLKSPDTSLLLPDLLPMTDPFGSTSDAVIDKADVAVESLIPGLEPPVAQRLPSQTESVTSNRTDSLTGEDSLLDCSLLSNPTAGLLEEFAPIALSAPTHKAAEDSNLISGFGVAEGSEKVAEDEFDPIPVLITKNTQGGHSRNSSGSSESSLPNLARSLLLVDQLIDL

Cytochrome P450 3A4 = Cytochrome P450 3A4 (Homo sapiens, UniProt P08684); test: Inhibition of […] (unknown origin) using BFC as substrate incubated for 10 mins in presence of NADPH by LC-MS/MS analysis; assay type: ADME
Cytochrome P450 3A4, sequence (P08684 whole entry): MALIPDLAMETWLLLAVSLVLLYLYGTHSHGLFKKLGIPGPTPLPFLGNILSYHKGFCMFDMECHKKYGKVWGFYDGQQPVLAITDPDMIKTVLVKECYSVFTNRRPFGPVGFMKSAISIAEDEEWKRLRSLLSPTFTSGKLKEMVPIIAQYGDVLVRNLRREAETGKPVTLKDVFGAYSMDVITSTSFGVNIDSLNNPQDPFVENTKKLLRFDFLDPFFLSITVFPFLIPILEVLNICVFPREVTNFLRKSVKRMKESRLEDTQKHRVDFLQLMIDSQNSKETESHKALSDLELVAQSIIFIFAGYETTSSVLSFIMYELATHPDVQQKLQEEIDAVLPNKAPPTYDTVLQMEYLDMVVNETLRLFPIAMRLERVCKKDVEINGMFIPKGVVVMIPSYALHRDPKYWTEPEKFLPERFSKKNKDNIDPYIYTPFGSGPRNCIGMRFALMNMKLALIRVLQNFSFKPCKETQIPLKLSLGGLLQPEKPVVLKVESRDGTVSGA

[6] = Metabolic stability in cynomolgus monkey liver microsomes assessed as half life incubated at 0.5 uM for 10 mins in presence of NADPH by LC-MS/MS analysis; assay type: ADME, Macaca fascicularis, Microsome
[7] = Permeability across apical to basolateral side in human Caco-2 cells; assay type: ADME, cell-based; settings: read-out: permeability
[8] = Half life in rat at 3 mg/kg, po or 2 mg/kg, iv; assay type: ADME, organism-based; settings: in vivo
[9] = Metabolic stability in mouse liver microsomes assessed as half life incubated at 0.5 uM for 10 mins in presence of NADPH by LC-MS/MS analysis; assay type: ADME, Microsome; settings: for half-life at 0.5 µM: liver microsomes
[10] = Permeability across basolateral to apical side in human Caco-2 cells; assay type: ADME, cell-based; settings: read-out: permeability
[11] = Efflux ratio of permeability in human Caco-2 cells; assay type: ADME, cell-based
[12] = Metabolic stability in rat liver microsomes assessed as half life incubated at 0.5 uM for 10 mins in presence of NADPH by LC-MS/MS analysis; assay type: ADME, Microsome
[13] = Oral bioavailability in rat at 3 mg/kg or 2 mg/kg,iv; assay type: ADME, organism-based; settings: in vivo

BMP-2-inducible protein kinase, sequence (Q9NSY1 whole entry): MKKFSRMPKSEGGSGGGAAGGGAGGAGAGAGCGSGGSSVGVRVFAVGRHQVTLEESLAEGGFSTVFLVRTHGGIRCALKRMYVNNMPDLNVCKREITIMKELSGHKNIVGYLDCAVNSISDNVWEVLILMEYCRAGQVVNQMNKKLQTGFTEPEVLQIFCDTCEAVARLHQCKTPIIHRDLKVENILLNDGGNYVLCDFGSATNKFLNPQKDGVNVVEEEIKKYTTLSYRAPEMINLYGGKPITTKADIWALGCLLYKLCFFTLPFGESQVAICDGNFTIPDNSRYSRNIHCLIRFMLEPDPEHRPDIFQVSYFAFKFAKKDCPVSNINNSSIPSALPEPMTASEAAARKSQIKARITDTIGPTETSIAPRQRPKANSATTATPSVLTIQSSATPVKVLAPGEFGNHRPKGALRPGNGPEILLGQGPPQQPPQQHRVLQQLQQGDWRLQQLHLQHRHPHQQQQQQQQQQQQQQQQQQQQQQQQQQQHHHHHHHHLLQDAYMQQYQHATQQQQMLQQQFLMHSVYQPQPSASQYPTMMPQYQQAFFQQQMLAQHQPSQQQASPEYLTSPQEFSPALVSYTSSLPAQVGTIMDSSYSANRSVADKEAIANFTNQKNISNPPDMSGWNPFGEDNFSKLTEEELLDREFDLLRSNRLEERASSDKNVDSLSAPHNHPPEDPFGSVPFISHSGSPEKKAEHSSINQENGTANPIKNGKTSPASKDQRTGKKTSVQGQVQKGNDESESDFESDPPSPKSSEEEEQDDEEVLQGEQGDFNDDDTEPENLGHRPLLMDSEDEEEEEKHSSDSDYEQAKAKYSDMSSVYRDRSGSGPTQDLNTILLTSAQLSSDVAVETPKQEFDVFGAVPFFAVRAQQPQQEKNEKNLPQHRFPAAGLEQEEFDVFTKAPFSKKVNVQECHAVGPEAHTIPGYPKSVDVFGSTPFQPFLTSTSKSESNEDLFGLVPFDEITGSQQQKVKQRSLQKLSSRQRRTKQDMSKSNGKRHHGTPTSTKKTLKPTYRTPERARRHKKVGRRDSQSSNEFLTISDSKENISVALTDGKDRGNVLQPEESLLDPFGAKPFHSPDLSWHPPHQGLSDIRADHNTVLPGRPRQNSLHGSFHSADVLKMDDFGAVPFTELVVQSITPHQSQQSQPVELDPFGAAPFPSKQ

Row | Compound | half-life at 0.5 µM [1] | IC50 [2] | remaining at 10 min, 0.5 µM [3] | IC50 (Cytochrome P450 2B6) | IC50 (Cytochrome P450 2C9) | IC50 (Cytochrome P450 1A2) | Papp at 4 h [4] | Ki [5] | IC50 (Cytochrome P450 3A4) | half-life at 0.5 µM [6] | Papp A→B [7] | half-life [8] | half-life at 0.5 µM [9] | Papp B→A [10] | efflux ratio [11] | half-life at 0.5 µM [12] | bioavailability [13] | Stability ([3]; microsomes, 10 min, 0.5 µM) | t1/2 ([9]; microsomes, 10 min, 0.5 µM)
1 | COC(=O)Nc1cc(-c2ccc(OC[C@@](C)(N)CC(C)C)c(C)n2)ccn1 | > 2 h | 0.09 µM | 93% | > 20 µM | > 20 µM | > 20 µM | 82.4 ×10⁻⁶ cm/s | 0.29 nM | > 20 µM | 0.85 h | 35.7 ×10⁻⁶ cm/s | 11.3 h | 1.53 h | 38.4 ×10⁻⁶ cm/s | 1.1 | 1.42 h | 94% | – | –
2 | CC(C)C[C@](C)(N)COc1cnc(-c2ccnc(C(F)F)c2)cc1C(F)F | > 2 h | 0.18 µM | 89% | > 20 µM | > 20 µM | > 20 µM | 40.6 ×10⁻⁶ cm/s | 0.05 nM | > 20 µM | 0.293 h | 23.5 ×10⁻⁶ cm/s | 5.02 h | > 2 h | 15.3 ×10⁻⁶ cm/s | 0.7 | 1.27 h | 22% | – | –
3 | COC(=O)Nc1cc(-c2cnc(OC[C@@](C)(N)CC(C)C)c(C)c2)ccn1 | > 2 h | 0.01 µM | – | > 20 µM | > 20 µM | > 20 µM | 56.5 ×10⁻⁶ cm/s | 0.21 nM | > 20 µM | 1.28 h | 17.2 ×10⁻⁶ cm/s | 7.55 h | – | 17.3 ×10⁻⁶ cm/s | 1 | 0.7 h | 77% | 68% | 0.9 h
